According to patent publication US10562920B2, “Ln(III) and Ga(III) metallacrown complexes” (The Regents of the University of Michigan, priority 2015, dated 2020):
Blank lines part the entries; values can stand above or below the substance they belong to.

What was measured:
Type in all cases: physicochemical
[1] = Quantum yields by absolute method using an integration sphere; conditions: for QLn^L/%: Ga6Ln(shi)9, solid state
Experimental: (§1) Luminescence data were collected on samples placed into 2.4 mm i.d. quartz capillaries or quartz Suprasil cells. Emission and excitation spectra were measured on a Horiba-Jobin-YvonFluorolog 3 spectrofluorimeter equipped with either a visible photomultiplier tube (PMT) (220-800 nm, R928P; Hamamatsu), a NIR solid-state InGaAs detector cooled to 77 K (800-1600 nm, DSS-IGA020L; Jobin-Yvon), or NIR PMTs (950-1450 nm, H10330-45; 950-1650 nm, H10330-75; Hamamatsu). All spectra were corrected for instrumental functions. Luminescence lifetimes were determined under excitation at 355 nm provided by a Nd:YAG laser (YG 980; Quantel), while the signal was detected in the NIR by the aforementioned PMT (H10330-75). The output signal from the detectors was then fed to a 500 MHz bandpass digital oscilloscope (TDS 754C; Tektronix) and then transferred to a PC for treatment with Origin 8®. Luminescence lifetimes are averages of at least three independent measurements. Quantum yields were determined with a Fluorolog 3 spectrofluorimeter according to an absolute method using an integration sphere (GMP SA). Each sample was measured several times under slightly different experimental conditions. Estimated experimental error for quantum yields determination is 10%.

[2] = Luminescence lifetimes under excitation at 355 nm; conditions: for τobs/μs: Ga8Ln2(shi)8, solid state
Experimental: as §1

[3] = Hydration number q from lifetimes in deuterated and protic solvents; conditions: from kCH3OH − kCD3OD, equations of footnotes b, c, e, g
Text: One parameter that can be obtained from the recording of luminescence lifetimes is the hydration number q. […] This non-zero q value is particularly detrimental for the intensity of the luminescence (and to the corresponding quantum yield values) of NIR-emitting lanthanides since the overtones of high-energy vibrations of the solvent molecules create a route for non-radiative deactivation.

[4] = Ligand triplet state from phosphorescence of Gd3+ analogues; conditions: for ΔE (cm^−1), energy gap between ligand triplet state and Ln3+ emissive state: T1 = 22 170 cm^−1, Ga4Ln(shi)4
Experimental: as §1
Phosphorescence can be observed by recording the signal emitted from Ga4Gd(shi)4 in time-resolved mode in the solid state at 77K upon excitation at 350 nm and using a 200 μS delay after the excitation flash (FIG. 9). The 0-0 component of this band represents the energy level of the ligand's triplet state (T1=22,170 cm^−1, 451 nm) which is attributed to the energy level responsible for the main contribution of the transfer to the Ln^3+. The T1 level is sufficiently high in energy to populate the excited states of a wide range of visible and NIR-emitting Ln^3+.
Since the Ga8Ln2(shi)8 dimer compounds were insoluble in all solvents, the solid state photophysical data alone were collected. As with the Ga4Gd(shi)4 compound, the Ga8Gd2(shi)8 complex may be used to examine the ligand-based photophysical properties. […] The solid state ligand phosphorescence was obtained at 77 K using an excitation wavelength of 350 nm and a 100 μs delay (FIG. 11). The profile of the phosphorescence is similar to that of Ga4Gd(shi)4 (FIG. 9), which was expected, since both compounds are formed by the same framework ligand, H3shi. The 0-0 transition was determined to be located at 455 nm, or 21 978 cm^−1. This triplet state energy is slightly lower than that of the Ga4Gd(shi)4 compound (22 170 cm^−1), but still is sufficiently high in energy to sensitize visible (Dy^3+, Tb^3+, Sm^3+) and/or NIR emitting (Dy^3+, Sm^3+, Ho^3+, Yb^3+, Pr^3+, Nd^3+, Er^3+) lanthanides.

[5] = Emission spectra under ligand excitation at 350 nm; conditions: Ga8Ln2(shi)8, solid state
Experimental: as §1
Using an excitation wavelength of 350 nm, both visible and NIR emission arising from f-f transitions of different lanthanide ions can be observed (FIG. 13). In general, quantum yields are lower for Ga8Ln2(shi)8 MCs compared to […] (Table 3) except for Ho^3+ analogues which quantum yield is increased by 1.65 times reaching 3.3(1)·10^−3%.

[6] = Ga8Ln2(shi)8, solid state, excitation 350 nm
[7] = solid state, 77 K, excitation 350 nm

QLn^L (%) (NIR) ([1]; Ga4Ln(shi)4, CD3OD): 6.0(1) · 10^−2% | QLn^L (%) (visible) ([1]; Ga4Ln(shi)4, CD3OD): 0.78(1) % | QLn^L (%) (NIR) ([1]; Ga4Ln(shi)4, CH3OH): 2.4(1) · 10^−2% | QLn^L (%) (visible) ([1]; Ga4Ln(shi)4, CH3OH): 0.38(1) % | QLn^L (%) (NIR) ([1]; Ga4Ln(shi)4, Solid): 0.21(1) % | QLn^L (%) (visible) ([1]; Ga4Ln(shi)4, Solid): 2.10(1) % | τobs (μs) ([2]; Ga4Ln(shi)4, CD3OD): 25.5(7) μs | τobs (μs) ([2]; Ga4Ln(shi)4, CH3OH): 12.0(1) μs | τobs (μs) ([2]; Ga4Ln(shi)4, Solid): 21.2(2) μs | q (hydration number) [3]: 0.7^e | ΔE (cm^−1), energy gap between ligand triplet state and Ln3+ emissive state [4]: 1 070 cm^−1
Substance: [Ga4Dy(shi)4(C6H5CO2)4(C5H5N)(CH3OH)].C5H6N.C5H5N.CH3OH

QLn^L/% [1]: 1.64(9) % | τ/μs ([2]; Ga6Ln(shi)9, solid state): 70(1) μs
Substance: [SmGa6(shi)7(Hshi)(H2shi)(C6H16N)3(C5H5N)2].6H2O [Ga6Sm(shi)9]

QLn^L/% [1]: 0.189(3) %
Substance: [TbGa6(shi)7(Hshi)(H2shi)(C6H16N)3(C5H5N)2] [Ga6Tb(shi)9]

QLn^L (%) (visible) ([1]; Ga4Ln(shi)4, Solid): 1.59(4) · 10^−2% | ΔE (cm^−1), energy gap between ligand triplet state and Ln3+ emissive state [4]: 4 910 cm^−1
Substance: [Ga4Eu(shi)4(C6H5CO2)4(C5H5N)(CH3OH)].C5H6N.C5H5N.CH3OH

ligand triplet state (T1, 0-0 component of phosphorescence), wavelength [4, 7]: 455 nm | ligand triplet state energy (T1, 0-0 component of phosphorescence) [4, 7]: 21 978 cm^−1
Substance: [Ga8Gd2(shi)8(isophthalate)4(DMF)6].8DMF.H2O

More lines, now with the values behind:

Substance: [Ga8Ho2(shi)8(isophthalate)4(DMF)6].8DMF.2H2O
QLn^L (%) (NIR) [1, 6]: 3.3(1) · 10^−3% | τobs/μs [2]: 0.032(1) μs | λem/nm [5]: 978 nm

Substance: [PrGa6(shi)7(Hshi)(H2shi)(C6H16N)3(C5H5N)2].4H2O [Ga6Pr(shi)9]
QLn^L/% [1]: 3.7(2) · 10^−3% | τ/μs ([2]; Ga6Ln(shi)9, solid state): 0.063(1) μs

Substance: [Ga8Nd2(shi)8(isophthalate)4(DMF)6].8DMF.H2O
QLn^L (%) (NIR) [1, 6]: 0.99(2) % | τobs/μs [2]: 2.46(1) μs | λem/nm [5]: 1064 nm

Substance: [ErGa6(shi)7(Hshi)(H2shi)(C6H16N)3(C5H5N)2].6H2O [Ga6Er(shi)9]
QLn^L/% [1]: 7.1(2) · 10^−3% | τ/μs ([2]; Ga6Ln(shi)9, solid state): 0.905(8) μs

Substance: [Ga8Er2(shi)8(isophthalate)4(DMF)6].8DMF.2H2O
QLn^L (%) (NIR) [1, 6]: 5.7(1) · 10^−3% | τobs/μs [2]: 5.23(2) μs | λem/nm [5]: 1525 nm

Substance: [YbGa4(shi)4(H2shi)2(C5H5N)5].(NO3).(C5H5N)2 [Ga4Ybshi6]
QLn^L/% NIR ([1]; solid state Ga4Ln(shi)6): 0.216(6) % | τ/μs ([2]; solid state Ga4Ln(shi)6): 2.99(2) μs

Substance: [Ga8Tb2(shi)8(isophthalate)4(DMF)6].8DMF.H2O
QLn^L (%) (visible) [1, 6]: 31.2(2) % | τobs/μs [2]: 1410(1) μs | λem/nm [5]: 545 nm

Substance: [Ga8Pr2(shi)8(isophthalate)4(DMF)6].8DMF.2H2O
QLn^L (%) (NIR) [1, 6]: 9.3(1) · 10^−3% | τobs/μs [2]: 0.901(6) μs | λem/nm [5]: 1020 nm

Substance: [HoGa6(shi)7(Hshi)(H2shi)(C6H16N)3(C5H5N)2].8H2O [Ga6Ho(shi)9]
QLn^L/% [1]: 1.1(2) · 10^−3% | τ/μs ([2]; Ga6Ln(shi)9, solid state): 0.037(1) μs

Substance: [Ga8Sm2(shi)8(isophthalate)4(DMF)6].8DMF.2H2O
QLn^L (%) (NIR) [1, 6]: 0.269(3) % | QLn^L (%) (visible) [1, 6]: 2.09(5) % | τobs/μs [2]: 117(1) μs | λem/nm [5]: 597 nm
